Like-named read-outs stand apart in the source and are kept apart here.
Legend:
[1] = biological target: T1, hippocampal neurons expressing YFP-hGluN1-1a (Rattus norvegicus, UniProt P35439, I267L/M415L/N159S/R212K); test: NMDA-induced excitotoxicity, hippocampal neurons expressing YFP-hGluN1-1a; assay type: cell-based; settings: 1 h treatment, measured 23 h later
T1 construct: expressed in transfected cells; host or cells: primary rat hippocampal neurons (E18 Wistar), lentiviral infection with shRNA knock-down of endogenous GluN1
Method: (§1) Excitotoxicity was measured 23 h after treatment by staining cells with the nuclear marker Hoechst 33,342 and then performing complex image analysis (Fig. 6a,b; see "Methods").
(§2) Excitotoxicity was induced as described previously. In brief, the cultured neurons were incubated overnight in 10% MEM (Thermo Fisher Scientific) and 90% salt-glucose (SG) medium containing 114 mM NaCl, 0.219% NaHCO3, 5.292 mM KCl, 1 mM MgCl2, 2 mM CaCl2, 10 mM HEPES, 30 mM glucose, […], and 0.1% phenol red. The following day, the media was replaced with 100% SG and the indicated concentrations of agonists/co-agonists were added to the neurons. […] Nuclear area was measured using ImageJ software (v. 1.52p), and custom-made macro scripts were used to automatically measure only the nuclei of infected cells (identified by YFP expression). […] The ratio of the number of cells in each group was then used to estimate the effects of mixing the two distributions and is expressed as the ratio of pyknotic and non-pyknotic cells. The percentage of pyknotic cells in each condition was then calculated as the number of cells classified as pyknotic divided by the total number of cells in that condition.

[2] = tested on: hippocampal neurons expressing YFP-hGluN1-1a-S688Y; test: NMDA-induced excitotoxicity, hippocampal neurons expressing YFP-hGluN1-1a-S688Y; assay type: cell-based, rat; settings: 1 h treatment, measured 23 h later
Method: as §1, §2

[3] = tested on: hGluN1-4a-S688Y/hGluN3A; settings: hGluN1-4a-S688Y/hGluN3A vs hGluN1-4a/hGluN3A, peak response
[4] = tested on: hippocampal neurons expressing YFP-hGluN1-1a; settings: steady-state concentration-response, in the presence of 1 mM NMDA
[5] = tested on: hippocampal neurons expressing YFP-hGluN1-1a-S688Y; settings: steady-state concentration-response, in the presence of 1 mM NMDA
[6] = tested on: hippocampal neurons expressing YFP-hGluN1-1a
[7] = tested on: hippocampal neurons expressing YFP-hGluN1-1a-S688Y; settings: 10 µM glycine together with 100 µM NMDA
[8] = tested on: GluN1 S688A mutation; settings: S688A mutation vs wild type; cited from earlier work
[9] = 10 µM co-agonist in the presence of 100 µM NMDA

Structure (SMILES)	neuronal cell death (% of d.n., pyknotic nuclei) ([1]; 10 µM co-agonist alone)	neuronal cell death / excitotoxicity (% of d.n., pyknotic nuclei) [1, 9]	neuronal cell death (% of d.n., pyknotic nuclei) ([2]; 10 µM co-agonist alone)	neuronal cell death / excitotoxicity (% of d.n., pyknotic nuclei) [2, 9]	decrease in glycine potency compared to wild-type receptors [3]	EC50 [4]	Hill coefficient (h) [4]	EC50 ([4]; listed as Glycine)	EC50 [5]	Hill coefficient (h) [5]	EC50 ([5]; listed as Glycine)	intracellular Ca2+ (Fura-2 F340/F380) ([6]; 10 µM glycine together with 100 µM NMDA)	intracellular Ca2+ (Fura-2 F340/F380) ([6]; 1000 µM glycine together with 100 µM NMDA)	intracellular Ca2+ (Fura-2 F340/F380) [7]	reduction in glycine potency [8]
N[C@H](CO)C(=O)O [D-serine]	only a small degree of cell death	~100%	only a small degree of cell death	significantly reduced cell death	–	–	–	–	–	–	–	–	–	–	–
NCC(=O)O [glycine]	–	–	–	–	~ twofold	0.2 µM	1.15 ± 0.05	0.17 ± 0.02 µM	220 µM	0.82 ± 0.06	219 ± 6.11 µM	robust increase	robust increase	no measurable effect	four-fold

Source: PMC7596085, “The pathogenic S688Y mutation in the ligand-binding domain of the GluN1 subunit regulates the properties of NMDA receptors” (Scientific Reports, 2020)
